Assay results taken from US20100278897A1, “INTRAOCULAR BIOACTIVE AGENT DELIVERY SYSTEM WITH MOLECULAR PARTITIONING SYSTEM” (ALLERGAN, INC., priority 2009, published 2010).

Experiment: Elimination of Compound A from the eye
Type: in vivo
Settings: intraocular

## Cc1ccoc1C(=O)Nc1cccc(C#Cc2cncc(C(=O)N=[S@](=O)(CCCN3CCN(CCOCCO)CC3)c3ccccc3)c2)c1 [Compound A]
  half-life of elimination from the eye: a few hours
